# According to the Kinase Knowledgebase extract (Sharma et al. 2016):
# pIC50: −log10 of the molar value.
# Biological target: EGFR (UniProt P00533)
# Sequence (P00533 whole entry, looked up): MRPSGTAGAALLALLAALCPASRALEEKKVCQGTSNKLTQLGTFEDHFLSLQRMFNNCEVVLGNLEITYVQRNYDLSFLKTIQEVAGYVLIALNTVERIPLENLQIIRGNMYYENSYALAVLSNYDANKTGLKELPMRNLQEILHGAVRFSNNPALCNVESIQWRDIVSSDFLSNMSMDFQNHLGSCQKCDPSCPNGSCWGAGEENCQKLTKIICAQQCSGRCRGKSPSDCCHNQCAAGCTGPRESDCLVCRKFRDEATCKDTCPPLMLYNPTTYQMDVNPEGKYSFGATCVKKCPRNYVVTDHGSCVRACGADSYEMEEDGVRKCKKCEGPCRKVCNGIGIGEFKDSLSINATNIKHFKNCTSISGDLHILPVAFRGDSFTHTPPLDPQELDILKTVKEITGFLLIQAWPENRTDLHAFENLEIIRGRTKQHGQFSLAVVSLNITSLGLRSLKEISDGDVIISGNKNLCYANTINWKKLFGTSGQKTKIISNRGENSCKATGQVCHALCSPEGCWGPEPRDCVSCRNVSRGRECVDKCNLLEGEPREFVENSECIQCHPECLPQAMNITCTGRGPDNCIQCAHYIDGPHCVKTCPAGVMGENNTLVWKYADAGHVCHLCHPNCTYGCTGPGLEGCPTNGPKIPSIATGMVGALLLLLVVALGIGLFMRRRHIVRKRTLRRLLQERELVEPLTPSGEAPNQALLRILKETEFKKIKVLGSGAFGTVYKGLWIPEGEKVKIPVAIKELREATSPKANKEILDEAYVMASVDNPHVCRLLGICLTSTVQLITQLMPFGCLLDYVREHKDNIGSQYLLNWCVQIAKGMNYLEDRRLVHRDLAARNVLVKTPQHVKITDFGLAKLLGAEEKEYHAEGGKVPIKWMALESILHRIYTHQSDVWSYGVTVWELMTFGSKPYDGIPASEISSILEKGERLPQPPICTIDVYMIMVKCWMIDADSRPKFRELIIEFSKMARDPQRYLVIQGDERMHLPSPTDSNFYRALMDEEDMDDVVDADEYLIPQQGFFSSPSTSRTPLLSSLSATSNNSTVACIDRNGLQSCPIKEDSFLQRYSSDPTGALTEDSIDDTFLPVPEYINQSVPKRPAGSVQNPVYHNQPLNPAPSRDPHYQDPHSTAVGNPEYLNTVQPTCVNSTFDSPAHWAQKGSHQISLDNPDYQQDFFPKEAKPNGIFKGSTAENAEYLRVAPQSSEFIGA
row,Structure (SMILES),pIC50
1,CCCS(=O)(=O)CCNCc1ccc(-c2cc3c(Nc4ccc(OCc5cccc(F)c5)cc4)ncnc3cn2)o1,> 7.00
2,CCCN(CCS(C)(=O)=O)Cc1ccc(-c2ccc3ncnc(Nc4ccc(OCc5cccc(F)c5)c(Cl)c4)c3c2)o1,> 7.00
3,CS(=O)(=O)CCNCCCc1ccc(-c2ccc3ncnc(Nc4ccc(OCc5ccccc5)c(Cl)c4)c3c2)o1,> 7.00
4,C=CS(=O)(=O)CCOCc1ccc(-c2ccc3ncnc(Nc4ccc(OCc5cccc(F)c5)c(Cl)c4)c3c2)o1,> 7.00
5,CCN(CCS(C)(=O)=O)Cc1ccc(-c2ccc3ncnc(Nc4ccc(OCc5cccc(F)c5)c(Cl)c4)c3c2)o1,> 7.00
6,CS(=O)(=O)CCOCc1ccc(-c2ccc3ncnc(Nc4ccc(OCc5cccc(F)c5)c(Cl)c4)c3c2)o1,> 7.00
7,CS(=O)(=O)CCN(CC#N)Cc1ccc(-c2ccc3ncnc(Nc4ccc(OCc5cccc(F)c5)c(Cl)c4)c3c2)o1,> 7.00

# Next, values leading:
row,pIC50,Structure (SMILES)
1,> 7.00,O=S(=O)(CCNCc1ccc(-c2ccc3ncnc(Nc4ccc(OCc5cccc(F)c5)c(Cl)c4)c3c2)o1)c1ccccc1
2,> 7.00,O=S(=O)(CCOCc1ccc(-c2ccc3ncnc(Nc4ccc(OCc5cccc(F)c5)c(Cl)c4)c3c2)o1)c1ccccc1
3,> 7.00,O=S(=O)(CCNCc1ccc(-c2ccc3ncnc(Nc4ccc(OCc5cccc(F)c5)c(Cl)c4)c3c2)o1)c1ccccn1
4,> 7.00,Cn1ccnc1S(=O)(=O)CCNCc1ccc(-c2ccc3ncnc(Nc4ccc(OCc5cccc(F)c5)c(Cl)c4)c3c2)o1
5,> 7.00,CCCS(=O)(=O)CCNCc1ccc(-c2ccc3ncnc(Nc4ccc(OCc5cccc(F)c5)c(Cl)c4)c3c2)o1
